{"source": "patent US6656971B2", "about": "“Trisubstituted carbocyclic cyclophilin binding compounds and their use” (Guilford Pharmaceuticals Inc., priority 2001, dated 2003)", "note": "pIC50: −log10 of the molar value.", "data": [{"biological_target": "T1, recombinant rat CyPA-GST fusion protein (Rattus norvegicus, UniProt P10111)", "T1 construct": "made in house; host or cells: E. coli BL21", "T1 sequence (P10111 2-164)": "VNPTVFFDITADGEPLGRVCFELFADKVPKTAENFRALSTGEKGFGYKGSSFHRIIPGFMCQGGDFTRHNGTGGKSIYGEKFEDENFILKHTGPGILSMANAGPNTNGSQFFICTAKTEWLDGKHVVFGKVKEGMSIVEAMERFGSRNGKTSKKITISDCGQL", "assay": "Rotamase (PPIase) inhibition, chymotrypsin-coupled cuvette assay, rat CyPA-GST fusion protein", "format": "biochemical", "settings": "Table A, value with asterisk: recombinant rat CyPA-GST fusion protein", "values": [{"compound": "O=C1c2ccccc2C(=O)N1Cc1cc(NC(=S)Nc2cc(Cl)cc(Cl)c2)cc(NC(=S)Nc2cc(Cl)cc(Cl)c2)c1", "note": "[Compound 27, 2-{[3,5-bis({[(3,5-dichlorophenyl)amino]thioxomethyl}amino)phenyl]methyl}iso-indoline-1,3-dione]", "pIC50": 6.67}, {"compound": "COc1ccc(NC(=O)Nc2cc(Cl)cc(Cl)c2)cc1OCc1cc(Cl)cc(Cl)c1", "note": "[Compound 28, 1-(3,5-Dichlorophenyl)-3-[3-(3,5-dichlorobenzyloxy)-4-methoxyphenyl]urea]", "pIC50": 6.04}, {"compound": "O=C(Nc1cc(Cl)cc(Cl)c1)Nc1ccc(Br)c(N(S(=O)(=O)c2cc(Cl)cc(Cl)c2)S(=O)(=O)c2cc(Cl)cc(Cl)c2)c1", "note": "[Compound 29, N-(3-{bis[(3,5-dichlorophenyl)sulfonyl]amino}-4-bromophenyl)[(3,5-dichlorophenyl)amino]formamide]", "pIC50": 5.00}, {"compound": "S=C(Nc1cc(Cl)cc(Cl)c1)Nc1cc(OCc2cccc3ccccc23)ccc1Br", "note": "[Compound 33, [(3,5-Dichlorophenyl)amino]{[2-bromo-5-(naphthylmethoxy)phenyl]amino}methane-1-thione]", "pIC50": 6.15}, {"compound": "S=C(Nc1cc(Cl)cc(Cl)c1)Nc1ccc(Nc2ccc(Cl)cc2)c(NC(=S)Nc2cc(Cl)cc(Cl)c2)c1", "note": "[Compound 36, [(3,5-dichlorophenyl)amino]{[3-({[(3,5-dichlorophenyl)amino]thioxo-methyl}amino)-4-[(4-chlorophenyl)amino]phenyl]amino}methane-1-thione]", "pIC50": 6.22}, {"compound": "COc1ccc(NC(=S)Nc2cc(Cl)cc(Cl)c2)cc1COc1cc(Cl)cc(Cl)c1", "note": "[Compound 45, 1-[3-(3,5-Dichlorophenoxy)methyl-4-methoxyphenyl]-3-(3,5-dichlorophenyl)thiourea]", "pIC50": 6.22}, {"compound": "COc1ccc(NC(=S)NC(=O)c2ccccc2)cc1COc1cc(Cl)cc(Cl)c1", "note": "[Compound 46, 1-[3-(3,5-Dichlorophenoxy)methyl-4-methoxyphenyl]-3-benzoylthiourea]", "pIC50": 5.42}, {"compound": "COc1ccc(NC(=O)c2cccc3ccccc23)cc1OCc1cccc2ccccc12", "note": "[Compound 47, N-[4-methoxy-3-(naphthylmethoxy)phenyl]naphthylformamide]", "pIC50": 5.91}, {"compound": "COc1ccc(NC(=O)Cc2cccc3ccccc23)cc1OCc1cccc2ccccc12", "note": "[Compound 48, N-[4-methoxy-3-(naphthylmethoxy)phenyl]-2-naphthylethanamide]", "pIC50": 5.92}]}, {"biological_target": "human recombinant CyPA (Homo sapiens, UniProt P62937)", "sequence (P62937 whole entry)": "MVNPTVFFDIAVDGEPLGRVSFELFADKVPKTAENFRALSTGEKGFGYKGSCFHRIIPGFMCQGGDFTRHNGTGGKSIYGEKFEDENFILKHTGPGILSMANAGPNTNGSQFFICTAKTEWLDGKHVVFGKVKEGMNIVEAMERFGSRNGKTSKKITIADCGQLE", "assay": "Semiautomated microtiter plate assay of rotamase activity inhibition, human recombinant CyPA", "format": "biochemical", "settings": "Table B, value without asterisk: human recombinant CyPA", "description": "Rotamase inhibition was determined using a semiautomated microtiter plate assay modification of the above described assay [see Küllertz et al., Clin. Chem. 44, 502-508 (1998)]. All dilutions of CyPA, peptide substrate, and chymotrypsin were made in 35 mM ice-cold HEPES buffer. Fifty μL of CyPA solution is added to 50 μL of the peptide substrate solution (Phe-Pro-Phe p-nitroanilide, 0.16 mg/ml) in a glass microtiter well plate (the concentration of human recombinant CyP being adjusted so that the reaction rate is increased by a factor of 3 as compared to an uncatalyzed control reaction wherein the peptide substrate is degraded by chymotrypsin alone, in the absence of CyPA and test compound). Using a Beckman Multimek™ 96 automated 96-channel pipettor, 5 μL of test compound solution, or a DMSO blank, were added to each well for a 30 minute preincubation at 4° C. One hundred μL of chymotrypsin solution (1 mg/mL) were added to each well and the absorbance at 390 nm versus time was monitored for 9-10 minutes using a BioRad Ultramark plate reader maintained at 4° C. and the rate constants were determined from the absorbance versus time data files.\nIC50 values which were obtained for representative compounds are presented in the following Table B. The cyclophilin utilized was a human recombinant CyPA. […] While CyP A was used in these examples, other CyP proteins can be substituted.", "values": [{"compound": "3-{3,5-Bis-[3-(3,5-dichlorophenyl)ureido]-phenyl}propionic acid methyl ester [Compound 5]", "pIC50": 5.89}, {"compound": "COC(=O)CCc1cc(NC(=O)Nc2cc(Cl)cc(Cl)c2)cc(NC(=O)Nc2cc(Cl)cc(Cl)c2)c1", "note": "[Compound 1, 3-{3,5-Bis-[3-(3,5-dichloro-phenyl)-ureido]-phenyl}-propionic acid methyl ester]", "pIC50": 5.53}, {"compound": "O=C(Nc1cccc(C(F)(F)F)c1)c1cc(O)cc(C(=O)Nc2cccc(C(F)(F)F)c2)c1", "note": "[Compound 2, 5-Hydroxy-N,N′-bis-(3-trifluoromethyl-phenyl)-isophthalamide]", "pIC50": 4.80}, {"compound": "O=C(Nc1cccc(C(F)(F)F)c1)c1cc(C(=O)Nc2cccc(C(F)(F)F)c2)cc(-c2cccc3ccccc23)c1", "note": "[Compound 3, 5-Naphthalen-1-yl-N,N′-bis-(3-trifluoromethyl-phenyl)isophthalamide]", "pIC50": 5.47}, {"compound": "CC(C)(C)OC(=O)NCCCCCCNC(=O)c1cc(NC(=O)Nc2cc(Cl)cc(Cl)c2)cc(C(=O)Nc2cccc(C(F)(F)F)c2)c1", "note": "[Compound 4, {6-[3-[3-(3,5-Dichloro-phenyl)-ureido]-5-(3-trifluoromethyl-phenylcarbamoyl)-benzoylamino]hexyl}carbamic acid tert-butyl ester]", "pIC50": 6.08}, {"compound": "O=C(Nc1cc(COc2ccc(Cl)c(Cl)c2)cc(NC(=O)c2cc(Cl)cc(Cl)c2)c1)c1cc(Cl)cc(Cl)c1", "note": "[Compound 6, 1,3-(3,5-Dichlorophenyl)-N-[5-(3,4-dichlorophenoxymethyl)-phenyl]amide]", "pIC50": 5.42}, {"compound": "O=S(=O)(Nc1cc(COc2ccc(Cl)c(Cl)c2)cc(NS(=O)(=O)c2cccc3ccccc23)c1)c1cccc2ccccc12", "note": "[Compound 7, 1,3-(1-Naphthalene)-N-[5-(3,4-dichloro-phenoxymethyl)-phenyl]-sulfonamide]", "pIC50": 5.68}, {"compound": "O=C(Nc1cccc(C(F)(F)F)c1)c1cc(OCc2ccccc2)cc(OCc2ccccc2)c1", "note": "[Compound 8, 3,5-Di(benzyloxy)-3′-(trifluoromethyl)benzanilid]", "pIC50": 5.32}, {"compound": "CS/C(=N\\c1cc(Cl)cc(Cl)c1)Nc1cc(NC(=O)c2cc(Cl)cc(Cl)c2)cc(Nc2cccc(C(F)(F)F)c2)c1", "note": "[Compound 9, N-(5-{[2-aza-2-(3,5-dichlorophenyl)-1-methylthiovinyl]amino}-3-{[3-(trifluoromethyl)phenyl]amino}phenyl)(3,5-dichlorophenyl)formamide]", "pIC50": 5.80}, {"compound": "S=C(Nc1cc(Cl)cc(Cl)c1)Nc1cc(NC(=S)Nc2cc(Cl)cc(Cl)c2)cc(Nc2ccc(Br)cc2)c1", "note": "[Compound 11, [(3,5-dichlorophenyl)amino]{[3-({[(3,5-dichlorophenyl)amino]thioxomethyl}amino)-5-[(4-bromophenyl)amino]phenyl]amino}methane-1-thione]", "pIC50": 6.09}, {"compound": "O=C(Nc1cc(CN2C(=O)c3ccccc3C2=O)cc(NC(=O)c2cccc(C(F)(F)F)c2)c1)c1cccc(C(F)(F)F)c1", "note": "[Compound 12, N-(5-[(1,3-dioxoisoindolin-2-yl)methyl]-3-{[3-(trifluoromethyl)phenyl]carbonylamino}phenyl)[3-(trifluoromethyl)phenyl]formamide]", "pIC50": 5.11}, {"compound": "O=C(Nc1cc(CNCc2cccc3ccccc23)cc(NC(=O)c2cccc(C(F)(F)F)c2)c1)c1cccc(C(F)(F)F)c1", "note": "[Compound 14, N-(5-{[(naphthylmethyl)amino]methyl}-3-{[3-(trifluoromethyl)phenyl]carbonyl-amino}phenyl)[3-(trifluoromethyl)phenyl]formamide]", "pIC50": 4.82}, {"compound": "O=C(Nc1cccc(C(F)(F)F)c1)c1cc(Oc2ccc3ccccc3c2)cc(C(=O)Nc2cccc(C(F)(F)F)c2)c1", "note": "[Compound 17, (5-(2-naphthyloxy)-3-{N-[3-(trifluoromethyl)phenyl]carbamoyl}phenyl)-N-[3-(trifluoromethyl)phenyl]formamide]", "pIC50": 5.70}, {"compound": "O=C(Nc1cccc(C(F)(F)F)c1)c1cc(C(=O)Nc2cccc(C(F)(F)F)c2)cc(-c2ccc3ccccc3c2)c1", "note": "[Compound 18, (5-(2-naphthyl)-3-{N-[3-(trifluoromethyl)phenyl]carbamoyl}phenyl)-N-[3-(trifluoromethyl)phenyl]formamide]", "pIC50": 5.88}, {"compound": "O=C(NCCc1ccc(Cl)c(Cl)c1)c1cc(COc2ccc(Cl)c(Cl)c2)cc(C(=O)NCCc2ccc(Cl)c(Cl)c2)c1", "note": "[Compound 19, 1-[(3,4-dichlorophenyl)oxymethy]-3,5-bis-{[2-(3,4-dichlorophenyl)ethyl]aminocarbonyl}benzene]", "pIC50": 5.55}, {"compound": "N#Cc1cccc(NC(=O)c2cc(OCc3ccc(-c4ccccc4C#N)cc3)cc(C(=O)Nc3cccc(C#N)c3)c2)c1", "note": "[Compound 22, 1-[4-(2-cyanophenyl)benzyl]loxy-3,5-bis-[(3-cyanophenyl)aminocarbonyl]benzene]", "pIC50": 5.33}, {"compound": "O=S(=O)(c1cc(Cl)cc(Cl)c1)N(c1ccc(Br)c(N(S(=O)(=O)c2cc(Cl)cc(Cl)c2)S(=O)(=O)c2cc(Cl)cc(Cl)c2)c1)S(=O)(=O)c1cc(Cl)cc(Cl)c1", "note": "[Compound 30, bis[(3,5-dichlorophenyl)sulfonyl](3-{bis[(3,5-dichlorophenyl)sulfonyl]amino)-4-bromophenyl)amine]", "pIC50": 5.00}, {"compound": "S=C(Nc1cc(Cl)cc(Cl)c1)Nc1ccc(Nc2ccc(Oc3ccccc3)cc2)c(NC(=S)Nc2cc(Cl)cc(Cl)c2)c1", "note": "[Compound 40, [(3,5-dichlorophenyl)amino]{[3-({[(3,5-dichlorophenyl)amino]thioxomethyl}amino)-4-[(4-phenoxyphenyl)amino]phenyl]amino}methane-1-thione]", "pIC50": 6.14}, {"compound": "O=C(CCCCc1ccccc1)Nc1cc(Br)cc(C(=O)NNC(=S)Nc2ccc(Cl)c(Cl)c2)c1", "note": "[Compound 53, 1-{3-[(5-Phenyl)valeroylamino]-5-bromobenzoyl}-4-(3,4-dichlorophenyl) thiosemicarbazide]", "pIC50": 6.41}, {"compound": "(3,5-dichlorophenyl)-N-[5-({[(3,5-dichlorophenyl)amino]thioxomethyl}amino)-3-{[3-(trifluoromethyl)phenyl]amino }phenyl]formamide [Compound 10]", "pIC50": 6.03}, {"compound": "(5-(2-(2-5,6,7,8-tetrahydronaphthyl)ethyl)-3-{N-[3-(trifluoromethyl)phenyl]carbamoyl}phenyl)-N-[3-(trifluoromethyl)phenyl]formamide [Compound 23]", "pIC50": 5.11}, {"compound": "(5-(2-(2-naphthyl)ethyl)-3-{N-[3-(trifluoromethyl)phenyl]carbamoyl}phenyl)-N-[3-(trifluoromethyl)phenyl]formamide [Compound 24]", "pIC50": 5.14}, {"compound": "[(3,5-dichlorophenyl)amino]{[3-({[(3,5-dichlorophenyl) amino]thioxo-methyl}amino)-4-(3,5-dimethylpyrazolyl)phenyl]amino}methane-1-thione [Compound 39]", "pIC50": 5.95}]}]}
